Values quoted from earlier work, collected in patent publication US20050079222A1, “Production of nanoparticles from methyl vinyl ether and maleic anhydride for the administration of hydrophilic pharmaceuticals, more particularly of puric and pyrimidinic bases” (priority 2001, published 2005).

Tested on: tumors
Conditions: versus 5-fluorouracile

O=c1[nH]c(=O)n([C@@H]2O[C@H](CO)[C@@H](O)[C@H]2O)cc1F [5-fluorouridine, 2,4-dioxo-5-fluoropyrimidine riboside]
antitumoral activity, times more potent than 5-fluorouracile and other derivatives: 100 times
